Reference: patent publication US4342762A, “Basic ethers and pharmaceutical compositions containing the same” (Egyt Gyogyszervegyeszeti Gyar, priority 1979, dated 1982)

Tests used:
white mice [1] = assay: analgesic effect, inhibition of acetic acid "writhing" reactions (Wirth et al.); assay type: in vivo; conditions: for ED50: Mus musculus, oral, 1 hour before i.p. 0.4 ml 0.5% acetic acid, read-out: Analgesic effect ED50; for Analgesic effect Therap.index: therapeutic index
Method: (§1) The analgesic effect of the new compounds according to the invention was determined by the method of Wirth et al. (Wirth, W., Gosswald, R., Horlein. K., Risse, Kl. H., Kreiskott, H.: Arch. Int. Pharmacodyn. 115, 1; (1958)). 0.4 ml of 0.5% acetic acid was administered i.p. to white mice, and the characteristic "writhing" reactions were counted after 5 minutes. The compounds to be tested had been orally administered an hour before the administration of the acetic acid. The activity is expressed as a percentage of the inhibition referred to the data observed on the control group. The results are given in Table I. The toxicity data determined on white mice of both sexes weighing 18-24 g belonging to the strain CFLP are also given. Administration was effected with an oral dose of 20 ml/kg. After treatment the animals were kept under observation for 4 days. The toxicity data (LD50 mg/kg) were determined by the graphic method of Litchfield-Wilcoxon [Litchfield, J.T., Wilcoxon, E. W., J Pharmacol. Exp. Therap. 96, 99; (1949)].

[2] = acute oral toxicity, graphic method of Litchfield-Wilcoxon, 4 days observation; conditions: mouse, in vivo
Method: as §1, with “The compounds to be tested had been orally administered an hour before the administration of the acetic acid. The activity is expressed as a percentage of the inhibition referred to the data observed on the control group.” left out

mice = assay: potentiating of hexobarbital-narcosis (Kaergaard); assay type: in vivo; conditions: for ED50: Mus musculus, iv, 40 mg/kg hexobarbital i.v., positive: sleeping period at least 2.5 times control; for Potentiating of narcosis Th.I.: therapeutic index
Method: (§2) The effect on the inhibition of the oriental activity (inhibition of the motility) was investigated on white mice in a Dews apparatus applied with 8 canals by the method of Borsy [Borsy, J., Csanyi, E., Lazar, I., Arc. Int. Pharmacodyn. 124, 1-2 (1960)]. After an oral pretreatment of 30 minutes the number of light-interruptions due to the movements of groups consisting of 3-3 mice was registered. The observation lasted for 30 minutes. The effect of the compounds exerted on the duration of hexobarbital-narcosis was tested by the method of Kaergaard [Kaergaard, N. C., Magnussen, M. P., Kampmann, E., Frey, H. H., Arc. Int. Pharmacodyn. 2, 170; (1967)]. Groups of animals consisting of 6-6 mice were treated.

white mice [3] = assay: inhibition of motility, Dews apparatus (Borsy); assay type: in vivo; conditions: for ED50: Mus musculus, oral pretreatment 30 minutes, observation 30 minutes; for Inhibition of motility Th.I.: therapeutic index
Method: as §2

white mice [4] = assay: inhibition of pentetrazole convulsion (modified Banziger and Hane); assay type: in vivo; conditions: for ED50: Mus musculus, oral; for Inhibition of pentetrazole convulsion Th. I.: therapeutic index
Method: (§3) The antiepileptic effect was investigated on white mice, after oral administration. The inhibition of maximal electroshock (MES) was determined by the method of Swinyard et al. [Swinyard et al. J. Pharmacol. Exp. Ther. 106, 319-330 (1952)]. White mice weighing 20-25 g were subjected to electric shock through corneal electrodes (Parameters: 50 Hz, 45 mA, 0.4 sec.). The total inhibition of the tonic extensor convulsion was considered as criterion of the anti-convulsive effect. The test-substance had been orally administered one hour before the electroshock. The inhibition of pentetrazole convulsion was determined on white mice by the modified method of Banziger and Hane [Banziger, R., Hane, L.D. Arch. Int. Pharmacodyn. 167, 245-249; (1967)]. I." stands for "therapeutic index."

white mice [5] = assay: inhibition of maximal electroshock (MES) (Swinyard et al.); assay type: in vivo; conditions: for ED50: Mus musculus, oral, 1 hour before electroshock 50 Hz, 45 mA, 0.4 sec, total inhibition of tonic extensor convulsion; for Inhibition of MES Th. I.: therapeutic index
Method: as §3

[6] = oral, 20 ml/kg, both sexes 18-24 g, 4 days observation

| Compound | ED50 (white mice [1]) [mg/kg] | LD50 at 96 h [2, 6] [mg/kg] | ED50 (mice) [mg/kg] | Potentiating of narcosis Th.I. (mice) | Analgesic effect Therap.index (white mice [1]) | ED50 (white mice [3]) [mg/kg] | Inhibition of motility Th.I. (white mice [3]) | LD50 at 96 h ([2]; po) [mg/kg] | ED50 (white mice [4]) [mg/kg] | Inhibition of pentetrazole convulsion Th. I. (white mice [4]) | ED50 (white mice [5]) [mg/kg] | Inhibition of MES Th. I. (white mice [5]) |
| --- | --- | --- | --- | --- | --- | --- | --- | --- | --- | --- | --- | --- |
| CC(=O)Nc1ccc(O)cc1 [Paracetamole, N-(4-Hydroxyphenyl)-acetamide, reference compound] | 180 |  |  |  |  |  |  |  |  |  |  |  |
| CC(C)N(CCOC1(Cc2ccccc2)CC2CCC1(C)C2(C)C)C(C)C (racemic) [Example 3, (±)-2-benzyl-2-(2'-diisopropylaminoethoxy)-1,7,7-trimethyl-bicyclo(2,2,1) heptane] | 120 | 1250 | 120 | 10.4 | 10.4 |  |  |  |  |  |  |  |
| CN(C)CCCOC1(c2ccccc2)CC2CCC1(C)C2(C)C (racemic) [Example 14, (±)-2-(3'-dimethylaminopropoxy)-2-phenyl-1,7,7-trimethyl-bicyclo(2,2,1)heptane] | 50 | 1000 | 64 | 15.6 | 20.0 | 38 | 26.3 |  |  |  |  |  |
| CCN(CC)CCCOC1(c2cccs2)CC2CCC1(C)C2(C)C (racemic) [Example 19, (±)-2-(3'-diethylaminopropoxy)-2-(2"-thienyl)-1,7,7-trimethyl-bicyclo(2,2,1)heptane] | 120 |  | 50 | 20.0 | 8.3 |  |  | 1000 |  |  |  |  |
| CN1C(=O)OC(C)(C)C1=O [Trimethadion, 3,5,5-Trimethyl-2,4-oxazolidinedione, reference compound] |  |  |  |  |  |  |  |  | 400 | 5.3 | 4.9 | 4.3 |
| COc1ccc(C2(OCCCN(C)C)CC3CCC2(C)C3(C)C)cc1 (racemic) [Example 22, (±)-2-(p-methoxyphenyl)-2-(3'-dimethylaminopropoxy)-1,7,7-trimethyl-bicyclo(2,2,1)heptane] | 72 | 1000 | 80 | 12.5 | 13.8 | 100 | 10.0 |  | 96 | 10.4 |  |  |
| CN(C)CCCOC1(Cc2ccc(Cl)cc2)CC2CCC1(C)C2(C)C (racemic) [Example 11, (±)-2-(p-chloro-benzyl)-2-(3'-dimethylaminopropoxy)-1,7,7-trimethyl-bicyclo(2,2,1)heptane] | 75 | 1500 | 130 | 11.5 | 20.0 | 130 | 11.5 |  |  |  |  |  |
| CCN(CC)CCOC1(Cc2ccc(Cl)cc2)CC2CCC1(C)C2(C)C (racemic) [Example 12] | 100 | 2000 | 200 | 10.0 | 20.0 |  |  |  | 110 | 18.2 | 72 | 27.7 |
| CC1(C)C2CCC1(C)C(Cc1ccccc1)(OCCCN1CCN(Cc3ccccc3)CC1)C2 (racemic) [Example 4] | 200 | 2000 |  |  | 10.0 |  |  |  |  |  |  |  |
| CCN(CC)CCCOC1(c2ccccc2)CC2CCC1(C)C2(C)C (racemic) [Example 16, (±)-2-(3-diethylaminopropoxy)-2-phenyl-1,7,7-trimethyl-bicyclo(2,2,1)heptane] | 70 | 700 | 20 | 35.0 | 10.0 |  |  |  | 60 | 11.7 | 30 | 23.3 |
| CN(C)CCCOC1(c2cccs2)CC2CCC1(C)C2(C)C (racemic) [Example 18, (±)-2-(3'-dimethylaminopropoxy)-2-(2"-thienyl)-1,7,7-trimethyl-bicyclo(2,2,1)heptane] | 140 |  |  |  | 10.0 |  |  | 1400 |  |  |  |  |
